# Data taken from US10766942B2, “Fragments of syndecan-2 having anti-angiogenic activity” (Queen Mary University of London, priority 2014, dated 2020).
# Columns and labels:
# brain ECs = assay: Scratch wound migration assay on brain ECs with murine syndecan-2 GST fusion proteins; format: cell-based; details: 0.5 μM fusion protein, vs GST alone
# Description: Scratch wound migration assays were performed in the presence of 0.5 μM of the fusion proteins indicated on brain ECs. Cell migration is measured by time lapse microscopy using an Olympus IX81 microscope with a controlled environment chamber set at 37° C., 10% CO2. Images were captured every 30 minutes using a Hamamatsu Orca ER digital camera and processed using Cell^M software (Olympus). (A) Phase contrast images 9 hours after the scratch was made. (B) EC migration speed is reduced in the presence of S2ED proteins containing the 18aa regulatory domain. Cell speed data represents mean measurements from at least 25 individual cells at the leading edge per treatment.
# Migration assays were also performed on brain ECs in the presence of murine syndecan-2 GST fusion proteins—either S2ED or the truncated forms of this protein (S2EDΔP^124-F^141 and S2EDΔL^73-G^123).
# Scratch wound migration assays: Scratch wound migration assays were performed on confluent monolayers of ECs. Wounds were made using a pipette tip, and fusion proteins were added to the medium and images were captured every 30 minutes for 12 hours by time lapse microscopy using an Olympus IX81 microscope. Percentage wound closure was calculated and individual cells tracked using Image J.
# CD148 = target: T1, CD148 (Mus musculus, UniProt Q64455); assay: CD148 pull down from EC lysates with GST fusion protein coated beads, Western blot; format: binding; details: protein-coated beads as bait
# T1 construct: endogenous in cells; bEND3.1 cells
# T1 sequence (Q64455 29-1238): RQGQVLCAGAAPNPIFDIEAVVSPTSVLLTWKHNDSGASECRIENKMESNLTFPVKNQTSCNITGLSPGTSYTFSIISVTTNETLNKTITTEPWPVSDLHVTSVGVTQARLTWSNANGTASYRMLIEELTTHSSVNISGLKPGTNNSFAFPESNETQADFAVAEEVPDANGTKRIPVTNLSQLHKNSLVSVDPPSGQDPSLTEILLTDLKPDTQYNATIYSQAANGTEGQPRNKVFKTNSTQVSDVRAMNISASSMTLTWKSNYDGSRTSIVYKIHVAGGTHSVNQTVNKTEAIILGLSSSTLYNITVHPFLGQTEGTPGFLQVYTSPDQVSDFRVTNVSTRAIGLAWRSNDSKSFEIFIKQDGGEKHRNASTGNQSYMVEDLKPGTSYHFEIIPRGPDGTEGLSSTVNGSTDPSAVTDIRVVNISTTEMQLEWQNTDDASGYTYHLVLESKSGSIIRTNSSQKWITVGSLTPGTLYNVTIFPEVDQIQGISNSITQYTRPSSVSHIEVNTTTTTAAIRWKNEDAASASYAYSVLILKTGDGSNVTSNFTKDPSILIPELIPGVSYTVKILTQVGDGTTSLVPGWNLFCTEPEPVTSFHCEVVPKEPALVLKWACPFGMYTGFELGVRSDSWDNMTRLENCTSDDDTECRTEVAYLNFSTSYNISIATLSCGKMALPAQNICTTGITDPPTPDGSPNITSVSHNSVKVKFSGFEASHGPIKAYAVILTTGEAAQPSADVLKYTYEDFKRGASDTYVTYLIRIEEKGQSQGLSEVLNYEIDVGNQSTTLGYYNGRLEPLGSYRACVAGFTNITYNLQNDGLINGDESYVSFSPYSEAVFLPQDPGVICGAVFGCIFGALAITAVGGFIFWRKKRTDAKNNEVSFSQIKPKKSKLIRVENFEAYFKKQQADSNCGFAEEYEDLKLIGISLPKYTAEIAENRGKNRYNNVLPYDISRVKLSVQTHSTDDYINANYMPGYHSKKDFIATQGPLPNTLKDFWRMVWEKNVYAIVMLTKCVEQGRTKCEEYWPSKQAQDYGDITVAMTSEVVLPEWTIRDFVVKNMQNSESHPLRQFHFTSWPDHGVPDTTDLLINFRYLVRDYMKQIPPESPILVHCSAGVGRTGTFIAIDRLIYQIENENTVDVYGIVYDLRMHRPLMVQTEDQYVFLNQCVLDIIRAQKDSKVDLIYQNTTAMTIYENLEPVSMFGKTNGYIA
# Description: (A) bEND3.1, MLEC and sEND cells express CD148. Western blot of lysates from the EC lines indicated were probed with antibodies to CD148 or β-tubulin. (B) CD148 interacts with murine syndecan extracellular core protein (S2ED). Cell lysates from sEND cells were incubated with beads coated with GST(control), S2ED, S2EDΔP^124-F^141 or S2EDΔL^73-G^123. Precipitates were analysed by Western blot for the presence of CD148. CD148 was only pulled down by forms of S2ED which contain the C-terminal 18 amino acid adhesion regulatory domain. Blot is representative of 4 experiments.
# In fibroblasts the protein tyrosine phosphatase receptor CD148 interacts directly with the adhesion regulatory domain of S2ED leading to β1 integrin mediated cell attachment and spreading (Whiteford et al., 2011 Mol Biol Cell, 22(19):3609-24). To determine whether CD148 is a mediator for EC responses to S2ED the expression of CD148 on ECs from brain, lung and skin was confirmed.
# CD148 pulldown and Western blot: Confluent bEND3.1 cells were lysed in 1% tritonx100 in TBS containing HALT protease and phosphatase inhibitors (Pierce). GST and S2ED were bound to glutathione-sepharose beads (GE Healthcare) and were added to cell lysates and incubated for 1 hour. Beads were isolated by centrifugation and washed twice in TBS, prior to incubation in Laemmli buffer and analysis by Western blot using standard procedures.
# [1] = test system: Rat aortas (aortic ring sections); assay: Rat aortic ring angiogenic sprouting assay in collagen I matrices; format: cell-based; details: 0.5 μM in collagen I matrix; rat aortic rings; vs untreated and GST controls
# Description: (A) Diagram of the murine syndecan-2 mutant proteins used in this study. (B) Rat aortas were seeded in collagen I matrices as above containing 0.5 μM of GST(control), S2ED or the mutant forms of S2ED. Sprouts from 8 rings per condition were counted and the mean calculated. Error bars represent the SEM and significance was calculated using a one way ANOVA with Bonferroni multiple comparison (p***<0.005, p****<0.0001).
# In another assay with murine peptides, full length S2ED, S2EDΔP^124-F^141 (lacking adhesion regulatory domain) or S2EDΔL^73-G^123 (truncated form containing only the adhesion regulatory residues) were incorporated into collagen matrices in which aortic ring sections were embedded (FIGS. 4A and B).
# Aortic ring assay: Thoracic aortas dissected from cervically dislocated 180-200 g male wistar rats (Harlan Laboratories) or 6 week old C57BL/6 mice (Charles River) were sliced into 0.5 mm sections and incubated overnight in serum free OptiMEM (Invitrogen) at 37° C. […] Angiogenic sprouts from rat and mouse aortas were counted after 4 days and 8 days respectively (Method based on that of Nicosia and Ottinetti (Laboratory Investigation 63:115-122, 1990) and modified in De Rossi et al. (Journal of Genetic Syndromes & Gene Therapy 4, 2013).
Pull-down of CD148 from EC lysates (CD148),Substance,EC cell migration (wound closure) (brain ECs),Angiogenic sprout formation [1]
successfully pull-down CD148,"S2ED: murine syndecan-2 extracellular core protein, full length, GST fusion protein (SEQ ID NO 3)",inhibited EC cell migration,severely compromised
successfully pull-down CD148,S2EDΔL^73-G^123: truncated murine syndecan-2 GST fusion protein containing only the adhesion regulatory residues (SEQ ID NO 5),inhibited EC cell migration,severely compromised
No CD148 was evident,S2EDΔP^124-F^141: murine syndecan-2 GST fusion mutant lacking adhesion regulatory domain (SEQ ID NO 4),did not affect cell migration,–
